In PubChem BioAssay AID2060492 (Molecular Pharmacology Branch, DTP, NCI, 2025):

Test system: 695427-040-R-J1-PDC complex spheroids, viability percent T/C
Experiment: Anticancer human tumor 695427-040-R-J1-PDC patient-derived colon adenocarcinoma cell line growth inhibition [GQUAD]
Conditions: for IC50: curve of first compound; for viability, T/C: stronger effect = lower value
Outline: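 Viability of tumor cells grown as complex spheroids with endothelial and stromal cells, exposed to drug combinations. Top concentration at or near clinical Cmax (else 10 microM), diluted in half-log increments.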

[1] = second compound 0.0316 µM, first compound 0.0316 µM
[2] = second compound 0.0316 µM, first compound 0.316 µM
[3] = second compound 0.1 µM, first compound 0.0316 µM
[4] = second compound 0.1 µM, first compound 0.316 µM
[5] = second compound 0.316 µM, first compound 0.0316 µM
[6] = second compound 0.316 µM, first compound 0.316 µM
[7] = second compound 1 µM, first compound 0.0316 µM
[8] = second compound 1 µM, first compound 0.316 µM
[9] = second compound 3.16 µM, first compound 0.0316 µM
[10] = second compound 3.16 µM, first compound 0.316 µM
[11] = second compound 10 µM, first compound 0.0316 µM
[12] = second compound 10 µM, first compound 0.316 µM
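Note: spheroids exposed to compounds for seven days before readout.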

CCc1c2c(nc3ccc(O)cc13)-c1cc3c(c(=O)n1C2)COC(=O)[C@]3(O)CC + Cc1[nH]c2ccc(F)cc2c1-c1nc2c3cccnc3c3ncccc3c2[nH]1
IC50 (second compound 0.0316 µM): 0.168 µM | IC50 (second compound 0.1 µM): 0.161 µM | IC50 (second compound 0.316 µM): 0.112 µM | IC50 (second compound 1 µM): 0.106 µM | IC50 (second compound 3.16 µM): 0.0824 µM | IC50 (second compound 10 µM): 0.106 µM | viability, T/C (second compound 0.0316 µM, first compound 0.000999 µM): 95.4% | viability, T/C (second compound 0.0316 µM, first compound 0.00316 µM): 74% | viability, T/C (second compound 0.0316 µM, first compound 0.00999 µM): 87.9% | viability, T/C [1]: 57.8% | viability, T/C (second compound 0.0316 µM, first compound 0.0999 µM): 62% | viability, T/C [2]: 40.8% | viability, T/C (second compound 0.1 µM, first compound 0.000999 µM): 93.7% | viability, T/C (second compound 0.1 µM, first compound 0.00316 µM): 71.6% | viability, T/C (second compound 0.1 µM, first compound 0.00999 µM): 80.2% | viability, T/C [3]: 57.7% | viability, T/C (second compound 0.1 µM, first compound 0.0999 µM): 57.6% | viability, T/C [4]: 43% | viability, T/C (second compound 0.316 µM, first compound 0.000999 µM): 99.5% | viability, T/C (second compound 0.316 µM, first compound 0.00316 µM): 64.2% | viability, T/C (second compound 0.316 µM, first compound 0.00999 µM): 82.2% | viability, T/C [5]: 63.2% | viability, T/C (second compound 0.316 µM, first compound 0.0999 µM): 56.1% | viability, T/C [6]: 34.5% | viability, T/C (second compound 1 µM, first compound 0.000999 µM): 67.7% | viability, T/C (second compound 1 µM, first compound 0.00316 µM): 85.8% | viability, T/C (second compound 1 µM, first compound 0.00999 µM): 82% | viability, T/C [7]: 64.6% | viability, T/C (second compound 1 µM, first compound 0.0999 µM): 52.5% | viability, T/C [8]: 37.6% | viability, T/C (second compound 3.16 µM, first compound 0.000999 µM): 72% | viability, T/C (second compound 3.16 µM, first compound 0.00316 µM): 74.5% | viability, T/C (second compound 3.16 µM, first compound 0.00999 µM): 63.5% | viability, T/C [9]: 59.5% | viability, T/C (second compound 3.16 µM, first compound 0.0999 µM): 48.7% | viability, T/C [10]: 33.2% | viability, T/C (second compound 10 µM, first compound 0.000999 µM): 71.9% | viability, T/C (second compound 10 µM, first compound 0.00316 µM): 72.2% | viability, T/C (second compound 10 µM, first compound 0.00999 µM): 66.4% | viability, T/C [11]: 60.8% | viability, T/C (second compound 10 µM, first compound 0.0999 µM): 49.8% | viability, T/C [12]: 37.4%

Cc1cccc(N(C)C(=O)C2C(O)CCN2c2nc(C)cc(C(F)(F)F)c2C#N)c1 (centres undefined) + Cc1[nH]c2ccc(F)cc2c1-c1nc2c3cccnc3c3ncccc3c2[nH]1
IC50 (second compound 0.0316 µM): > 10 µM | IC50 (second compound 0.1 µM): > 10 µM | IC50 (second compound 0.316 µM): > 10 µM | IC50 (second compound 1 µM): > 10 µM | IC50 (second compound 3.16 µM): > 10 µM | IC50 (second compound 10 µM): > 10 µM | viability, T/C [1]: 109% | viability, T/C (second compound 0.0316 µM, first compound 0.1 µM): 124% | viability, T/C [2]: 105% | viability, T/C (second compound 0.0316 µM, first compound 1 µM): 106% | viability, T/C (second compound 0.0316 µM, first compound 3.16 µM): 95.2% | viability, T/C (second compound 0.0316 µM, first compound 10 µM): 92.3% | viability, T/C [3]: 102% | viability, T/C (second compound 0.1 µM, first compound 0.1 µM): 88% | viability, T/C [4]: 107% | viability, T/C (second compound 0.1 µM, first compound 1 µM): 76.3% | viability, T/C (second compound 0.1 µM, first compound 3.16 µM): 104% | viability, T/C (second compound 0.1 µM, first compound 10 µM): 86.4% | viability, T/C [5]: 93.2% | viability, T/C (second compound 0.316 µM, first compound 0.1 µM): 91.2% | viability, T/C [6]: 98.8% | viability, T/C (second compound 0.316 µM, first compound 1 µM): 76.9% | viability, T/C (second compound 0.316 µM, first compound 3.16 µM): 91.4% | viability, T/C (second compound 0.316 µM, first compound 10 µM): 80.5% | viability, T/C [7]: 79.7% | viability, T/C (second compound 1 µM, first compound 0.1 µM): 89.4% | viability, T/C [8]: 85.2% | viability, T/C (second compound 1 µM, first compound 1 µM): 82.5% | viability, T/C (second compound 1 µM, first compound 3.16 µM): 93.8% | viability, T/C (second compound 1 µM, first compound 10 µM): 87.1% | viability, T/C [9]: 70.2% | viability, T/C (second compound 3.16 µM, first compound 0.1 µM): 75.2% | viability, T/C [10]: 84.8% | viability, T/C (second compound 3.16 µM, first compound 1 µM): 91.1% | viability, T/C (second compound 3.16 µM, first compound 3.16 µM): 95.6% | viability, T/C (second compound 3.16 µM, first compound 10 µM): 72.6% | viability, T/C [11]: 68.4% | viability, T/C (second compound 10 µM, first compound 0.1 µM): 78.4% | viability, T/C [12]: 83.8% | viability, T/C (second compound 10 µM, first compound 1 µM): 79.9% | viability, T/C (second compound 10 µM, first compound 3.16 µM): 88.3% | viability, T/C (second compound 10 µM, first compound 10 µM): 72%
